Experimental data taken from patent publication US11292778B2, “Heterocyclyl polymethine IR chromophores” (The Regents of the University of California, priority 2017, dated 2022).
Several values for one entry are separate records, joined by “and”; a condition that tells them apart may be missing. Equal values may be shown once. Entries after “also recorded” stand apart in the source; their conditions may differ.

How the values were obtained:
Format in all cases: physicochemical
[1] = Emission spectra of the dyes in DCM; conditions: dichloromethane; for emission (DCM) λmax: dyes 1, 3-6 and reference dyes; for Emission (CH2Cl2): Example 4 dyes, excitation 806-900 nm per dye
Text: (§1) The absorbance spectra in FIG. 2 and FIG. 5 were obtained in DCM on a JASCO V-770 UV-Visible/[…] spectrophotometer with a 2000 nm/min or 4000 nm/min scan rate. Plotted are the baseline corrected and normalized data. The emission spectra in FIG. 2 were taken in DCM on either a Horiba Instruments PTI QuantaMaster Series fluorometer (6), a Fluoromax-3 spectrofluorometer (1, 3-5), or home-built InGaAs array detector (Princeton Instruments). For 6 the following parameters were used: ex. 610 nm, emission collected from 620-900 nm, slits 5 nm, step size 1 nm, integration time 1 s. Plotted is the DCM corrected, baseline corrected, normalized data. For 1, and 3-5, the following parameters were used: slits 5 nm, step size 1 nm, integration time, 0.25 s. Excitation values and emission collection were as follows: 1 (ex. 460, collection 470-800 nm), 5 (ex. 675 nm, collection 685-950 nm), 4 (ex. 840 nm, emission 850-1100 nm), 3 (ex. 730 nm, emission 950-1400). Plotted are the baseline corrected, normalized data. The emission spectra in FIG. 5 were taken in dichloromethane on a Horiba Instruments QuantaMaster Series fluorometer with excitation slits: 15 nm, emission slits: 30 nm, step size: 1 nm, integration time: 0.1 s and excitation wavelengths as indicated.

[2] = Absorbance spectra of the dyes in DCM (UV-Visible/NIR spectrophotometer); conditions: dichloromethane; for absorption (DCM) ε: at absorption λmax; for absorption (DCM) λmax: in example paragraphs the longest-wavelength absorbance peak
Text: as §1

[3] = Photobleaching under continuous-wave irradiation at 532 nm; conditions: for relative rate, krel (photobleaching): 532 nm irradiation; for relative rate, krel (photobleaching) / photostability (in words) / raw rate, k (photobleaching) / ε at 532 nm: dichloromethane; for raw rate, k (photobleaching): continuous-wave irradiation 532 nm, 0.53 fluence
Experimental: Photostabilities of the Flay series were measured under continuous-wave irradiation (532 nm, 0.53 fluence).

[4] = Absolute fluorescence quantum yield using an integrating sphere; conditions: for QE, εΦF (quantum efficiency) / ΦF (fluorescence quantum yield): dichloromethane; for ΦF (fluorescence quantum yield): absolute value
Experimental: Polymethine dyes disclosed herein are characterized with respect to their photophysics including absorption, emission, extinction coefficient, quantum yields, and fluorescence lifetime. All quantum yields values obtained are absolute quantum yields values measured using an integrating sphere. Photostabilities are evaluated by sample irradiation with high powered LEDs. Additionally, solvatochromism, solvent compatibility, and stability are assessed.

Row | Structure (SMILES) | emission (DCM) λmax [1] [nm] | absorption (DCM) λmax [2] [nm] | Emission (CH2Cl2) [1] [nm] | absorption (DCM) ε [2] | other results
1 | CN(C)c1ccc2c(c1)OC(c1ccccc1)=C/C2=C\C=C\c1cc(-c2ccccc2)[o+]c2cc(N(C)C)ccc12.[O-][Cl+3]([O-])([O-])[O-] [Dye 5, 7-(dimethylamino)-4-((E)-3-((E)-7-(dimethylamino)-2-phenyl-4H-chromen-4-ylidene)prop-1-en-1-yl)-2-phenylchromenylium perchlorate] | 766 | 746 | – | – | absorption (DCM) ε ([2]; listed as Flav3): ~220,000 M^−1cm^−1; absorption (DCM) λmax ([2]; listed as Flav3): ~745 nm; relative rate, krel (photobleaching) [3]: 1.00 ± .06; photostability relative to HITCI ([3]; 532 nm laser): 4 fold; photostability (in words) ([3]; 532 nm laser, listed as Flav3): extremely high photostabilities; also recorded: excellent photostabilities; raw rate, k (photobleaching) [3]: 1.00 ± 0.06 s^−1 × 10^−3; ε at 532 nm [3]: 2.0 ± 0.1 M^−1cm^−1 × 10^4; QE, εΦF (quantum efficiency) [4]: 6600 M⁻¹ cm⁻¹; ΦF (fluorescence quantum yield) [4]: 2.9±0.5% and 2.9%
2 | CN(C)c1ccc2c(c1)OC(c1ccccc1)=C/C2=C\c1cc(-c2ccccc2)[o+]c2cc(N(C)C)ccc12.O=C([O-])C(F)(F)F [Dye 6, (E)-7-(dimethylamino)-4-((7-(dimethylamino)-2-phenyl-4H-chromen-4-ylidene)methyl)-2-phenylchromenylium 2,2,2-trifluoroacetate] | 684 | 650 | – | – | relative rate, krel (photobleaching) [3]: 4 ± 1; photostability (in words) ([3]; 532 nm laser, listed as Flav1, 2,2,2-trifluoroacetate): extremely high photostabilities; also recorded: excellent photostabilities; raw rate, k (photobleaching) [3]: 0.43 ± 0.01 s^−1 × 10^−3; ε at 532 nm [3]: 0.23 ± 0.08 M^−1cm^−1 × 10^4; QE, εΦF (quantum efficiency) [4]: 100 M⁻¹ cm⁻¹; ΦF (fluorescence quantum yield) ([4]; 2,2,2-trifluoroacetate): 0.7±0.5% and 0.7%
3 | ClC1=C(/C=C/c2cc(-c3ccccc3)[o+]c3c4c5c(cc23)CCCN5CCC4)CCC/C1=C\C=C1/C=C(c2ccccc2)Oc2c1cc1c3c2CCCN3CCC1.F[B-](F)(F)F [9-((E)-2-((E)-2-chloro-3-((E)-2-(11-phenyl-2,3,6,7-tetrahydro-1H,5H,9H-pyrano[2,3-f]pyrido[3,2,1-ij]quinolin-9-ylidene)ethylidene)cyclohex-1-en-1-yl)vinyl)-11-phenyl-2,3,6,7-tetrahydro-1H,5H-pyrano[2,3-f]pyrido[3,2,1-ij]quinolin-12-ium tetrafluoroborate] | – | 1061 | 1089 | 2.38±0.07×10^5 M^−1cm^−1 | –
4 | CN(C)c1ccc2c(c1)OC(c1ccccc1)=C\C2=C/C=C/C=C/c1cc(-c2ccccc2)[o+]c2cc(N(C)C)ccc12.[O-][Cl+3]([O-])([O-])[O-] [Dye 4] | 908 | 862 | – | – | Stoke's shift [1]: 46 nm; relative rate, krel (photobleaching) [3]: 4.0 ± 0.2; photostability (in words) ([3]; 532 nm laser, listed as Flav5): extremely high photostabilities; also recorded: excellent photostabilities; raw rate, k (photobleaching) [3]: 2.6 ± 0.2 s^−1 × 10^−3; ε at 532 nm [3]: 1.29 ± 0.08 M^−1cm^−1 × 10^4; QE, εΦF (quantum efficiency) [4]: 10000 M⁻¹ cm⁻¹; QE, εΦF (quantum efficiency) ([4]; listed as Flav5): 10^3 M^−1cm^−1
5 | Cc1cc(-c2ccccc2)[o+]c2cc(N(C)C)ccc12 [Dye 1, 7-N,N-dimethylamino-4-methyl-flavylium perchlorate] | 587 | 510 | – | 17000 M⁻¹ cm⁻¹ | –
6 | ClC1=C(/C=C/c2cc(-c3ccccc3)[o+]c3c2ccc2ccccc23)CCC/C1=C\C=C1/C=C(c2ccccc2)Oc2c1ccc1ccccc21.F[B-](F)(F)F [4-((E)-2-((E)-2-chloro-3-((E)-2-(2-phenyl-4H-benzochromen-4-ylidene)ethylidene)cyclohex-1-en-1-yl)vinyl)-2-phenylbenzo chromen-1-ium tetrafluoroborate] | – | 998 | 1024 | – | –
7 | ClC1=C(/C=C/c2cc(-c3ccccc3)[s+]c(-c3ccccc3)c2)CCC/C1=C/C=C1C=C(c2ccccc2)SC(c2ccccc2)=C1.F[B-](F)(F)F [IR-1061, reference compound] | 1081 | – | – | – | ΦF (fluorescence quantum yield) [4]: 0.32±0.04%
8 | C1=C(c2ccccc2)Oc2c(cc3c4c2CCCN4CCC3)/C1=C/C=C/C=C/c1cc(-c2ccccc2)[o+]c2c3c4c(cc12)CCCN4CCC3.F[B-](F)(F)F [11-phenyl-9-((1E,3E,5E)-5-(11-phenyl-2,3,6,7-tetrahydro-1H,5H,9H-pyrano[2,3-f]pyrido[3,2,1-ij]quinolin-9-ylidene)penta-1,3-dien-1-yl)-2,3,6,7-tetrahydro-1H,5H-pyrano[2,3-f]pyrido[3,2,1-ij]quinolin-12-ium tetrafluoroborate] | – | 897 | 934 | 2.5±0.1×10^5 M^−1cm^−1 | –
9 | ClC1=C(/C=C/c2cc(-c3ccccc3)[o+]c3ccc4ccccc4c23)CCC/C1=C\C=C1/C=C(c2ccccc2)Oc2ccc3ccccc3c21.F[B-](F)(F)F [1-((E)-2-((E)-2-chloro-3-((E)-2-(3-phenyl-1H-benzo[f]chromen-1-ylidene)ethylidene)cyclohex-1-en-1-yl)vinyl)-3-phenylbenzo[f]chromen-4-ium tetrafluoroborate] | – | 1014 | 1055 | – | –
10 | CN1C(=CC=CC=CC=CC2=[N+](C)c3ccccc3C2(C)C)C(C)(C)c2ccccc21.[I-] [HITCI, 1,1′,3,3,3′,3′-hexamethylindotricarbocyanine iodide, reference compound] | – | – | – | – | ΦF relative to Flav3 [4]: ~10 fold
11 | ClC1=C(/C=C/c2cc(-c3ccccc3)[o+]c3cc(N(c4ccccc4)c4ccccc4)ccc23)CCC/C1=C\C=C1/C=C(c2ccccc2)Oc2cc(N(c3ccccc3)c3ccccc3)ccc21.F[B-](F)(F)F [4-((E)-2-((E)-2-chloro-3-(2-((E)-7-(diphenylamino)-2-phenyl-4H-chromen-4-ylidene)ethylidene)cyclohex-1-en-1-yl)vinyl)-7-(diphenylamino)-2-phenylchromenylium tetrafluoroborate] | – | 1047 | 1079 | – | –
12 | ClC1=C(/C=C/c2cc(-c3ccccc3)[o+]c3cc(N4CCC4)ccc23)CCC/C1=C\C=C1/C=C(c2ccccc2)Oc2cc(N3CCC3)ccc21.F[B-](F)(F)F [7-(azetidin-1-yl)-4-((E)-2-((E)-3-(2-((E)-7-(azetidin-1-yl)-2-phenyl-4H-chromen-4-ylidene)ethylidene)-2-chlorocyclohex-1-en-1-yl)vinyl)-2-phenylchromenylium tetrafluoroborate] | – | 1029 | 1059 | 2.07±0.01×10^5 M^−1cm^−1 | –
13 | CN(C)c1ccc2c(c1)OC(c1ccccc1)=C/C2=C\C=C1/CCCC(/C=C/c2cc(-c3ccccc3)[o+]c3cc(N(C)C)ccc23)=C1Cl.F[B-](F)(F)F [4-((E)-2-((E)-2-chloro-3-(2-((E)-7-(dimethylamino)-2-phenyl-4H-chromen-4-ylidene)ethylidene)cyclohex-1-en-1-yl)vinyl)-7-(dimethylamino)-2-phenylchromenylium tetrafluoroborate] | – | 1026 | 1054 | – | –
14 | CCN(CC)c1ccc2c(c1)OC(c1ccccc1)=C/C2=C\C=C1/CCCC(/C=C/c2cc(-c3ccccc3)[o+]c3cc(N(CC)CC)ccc23)=C1Cl.F[B-](F)(F)F [4-((E)-2-((E)-2-chloro-3-(2-((E)-7-(diethylamino)-2-phenyl-4H-chromen-4-ylidene)ethylidene)cyclohex-1-en-1-yl)vinyl)-7-(diethylamino)-2-phenylchromenylium tetrafluoroborate] | – | 1034 | 1062 | 1.8±0.2×10^5 M^−1cm^−1 | –
